Results published in article PMC5609913, “Structure based design, synthesis and activity studies of small hybrid molecules as HDAC and G9a dual inhibitors” (Oncotarget, 2017).

Columns and labels:
[1] = biological target: T1, G9a (Homo sapiens, UniProt Q96KQ7); assay: H3K9Me2 cell immunofluorescence In-Cell Western (ICW) assay in MDA-MB-231; type: cell-based; settings: MDA-MB-231 cell line, 48 h exposure
T1 construct: endogenous in cells; host or cells: MDA-MB-231
T1 sequence (Q96KQ7 1-1210): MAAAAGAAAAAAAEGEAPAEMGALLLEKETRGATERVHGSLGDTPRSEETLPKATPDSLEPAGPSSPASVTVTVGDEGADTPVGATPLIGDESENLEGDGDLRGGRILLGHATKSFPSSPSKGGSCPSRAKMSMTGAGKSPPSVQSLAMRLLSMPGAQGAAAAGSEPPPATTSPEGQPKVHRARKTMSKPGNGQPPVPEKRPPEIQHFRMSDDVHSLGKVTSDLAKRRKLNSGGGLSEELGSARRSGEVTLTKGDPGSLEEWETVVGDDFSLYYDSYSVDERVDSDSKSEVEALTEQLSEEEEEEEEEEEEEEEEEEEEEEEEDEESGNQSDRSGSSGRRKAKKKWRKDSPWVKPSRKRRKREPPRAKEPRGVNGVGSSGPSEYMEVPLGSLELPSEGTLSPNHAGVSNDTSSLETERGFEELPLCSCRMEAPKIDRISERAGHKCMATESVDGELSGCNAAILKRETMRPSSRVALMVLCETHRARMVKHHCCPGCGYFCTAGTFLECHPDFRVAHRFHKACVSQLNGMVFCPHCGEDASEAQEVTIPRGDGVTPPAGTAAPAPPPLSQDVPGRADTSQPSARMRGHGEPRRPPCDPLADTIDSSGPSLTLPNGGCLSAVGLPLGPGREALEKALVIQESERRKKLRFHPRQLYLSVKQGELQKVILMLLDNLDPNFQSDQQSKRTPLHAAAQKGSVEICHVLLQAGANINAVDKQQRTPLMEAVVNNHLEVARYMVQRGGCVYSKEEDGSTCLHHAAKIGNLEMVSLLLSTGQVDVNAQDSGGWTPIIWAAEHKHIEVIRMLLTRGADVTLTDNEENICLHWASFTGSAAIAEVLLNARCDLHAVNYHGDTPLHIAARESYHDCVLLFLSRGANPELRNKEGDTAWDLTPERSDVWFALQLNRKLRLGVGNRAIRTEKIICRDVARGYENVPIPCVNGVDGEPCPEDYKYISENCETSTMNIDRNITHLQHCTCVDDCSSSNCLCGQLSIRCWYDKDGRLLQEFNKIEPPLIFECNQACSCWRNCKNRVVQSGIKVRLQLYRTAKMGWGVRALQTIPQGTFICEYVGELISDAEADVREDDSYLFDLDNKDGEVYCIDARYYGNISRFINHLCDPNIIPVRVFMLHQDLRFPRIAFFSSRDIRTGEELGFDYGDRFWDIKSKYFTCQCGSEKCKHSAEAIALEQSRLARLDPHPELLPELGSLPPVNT
Protocol: After the incubation, the media was removed and 100 μl fixation and permeabilization solution (2% formaldehyde in PBS) for fixation was added for 30 min. And then use 200 μl 0.1% Triton X100 in PBS washing solution to wash (allow wash to shake on a plate shaker for 5 min). After five washes, cells were blocked for 1 h with 150 μl blocking buffer to each well (1% BSA in PBS) (allow blocking at room temperature with moderate shaking on a plate shaker). After 1 h, remove the blocking buffer from the blocking step and add primary antibody in blocking buffer to cover the bottom of each well. […] The plates were read on an Odyssey CLX (LiCor) scanner at both 800 nm (H3K9me2 signal) and 700 nm (cell tag 700 stain signal) channels. IC50s were calculated using GraphPad Prizm statistical package with sigmoidal variable slope dose response curve fit.

[2] = test system: HDAC; assay: Homogeneous cellular histone deacetylase assay, A549; type: cell-based, human; settings: Supplementary Table 2; NA = not active up to highest concentration tested (100 μM); >100 = IC50 not reached at 100 μM
Protocol: (§1) The enzymatic activity of HDAC was measured in intact cells using the homogeneous cellular assay method. A cell-permeable peptide Boc-K(Ac)-AMC used as the HDAC substrate, after deacetylation it is cleaved by trypsin to release the fluorescent 7-amino-4-methylcoumarin (AMC) and further quantified.
(§2) The manual assay was developed by Thomas's group. […] After 24 h, 9 μl inhibitors with different concentration were added to the HeLa cells and incubation was continued for 3 h under cell culture conditions. After this treatment period, 10 μl of a 2 mM stock solution of the substrate Boc-K(Ac)-AMC was added into the 96 well plates with Hela cells and inhibitors. […] A549 and K562 cell lines used the same method, respectively. IC50s were calculated using GraphPad Prizm statistical package with sigmoidal variable slope dose response curve fit.

[3] = test system: HDAC; assay: Homogeneous cellular histone deacetylase assay, Hela; type: cell-based, human
Protocol: as §1, §2

[4] = test system: HDAC; assay: Homogeneous cellular histone deacetylase assay, K562; type: cell-based, human
Protocol: as §1, §2

[5] = test system: HEK293 cells; assay: Cell anti-proliferation / toxicity assay (CCK-8), HEK293 normal cell line; type: cell-based; settings: Homo sapiens, Table 6, 72 h
Protocol: (§3) Cell anti-proliferation assays were performed to determine the toxicity of these inhibitors. […] These compounds were further evaluated against the control cell line HEK293 to test their toxicity with a non-cancerous cell line.
(§4) And then the cells were exposed to the different inhibitors with various concentrations for 72 h. […] EC50s were calculated using GraphPad Prizm statistical package with sigmoidal variable slope dose response curve fit.

[6] = test system: A549 cells; assay: Cell anti-proliferation / toxicity assay (CCK-8), A549; type: cell-based; settings: Homo sapiens
Protocol: as §3, §4

[7] = Supplementary Table 2, NA = not active up to highest concentration tested (100 μM), >100 = IC50 not reached at 100 μM, read-out: IC50-HDAC Hela
[8] = Supplementary Table 2, NA = not active up to highest concentration tested (100 μM), >100 = IC50 not reached at 100 μM, read-out: IC50-HDAC K562
[9] = Table 6, 72 h, >100 = not reached at highest tested concentration (100 μM)
[10] = Table 3, Boc-K(Ac)-AMC substrate, intact Hela cells, read-out: Hela IC50
[11] = Table 3, Boc-K(Ac)-AMC substrate, intact K562 cells, read-out: K562 IC50

Q: With `COc1cc2nc(NCCNC(=O)CCCC(=O)NO)nc(NC3CCN(C(C)C)CC3)c2cc1OC` [Compound 7a, N1-hydroxy-N5-(2-((4-((1-isopropylpiperidin-4-yl)amino)-6,7-dimethoxyquinazolin-2-yl)amino)ethyl)glutaramide] as the molecule, how does the IC50 [1] read?
A: 54.6 ± 3.05 µM

Q: Which results are given for `COc1ccc2c(NC3CCN(C)CC3)nc(NCCNC(=O)CCCCC(=O)NO)nc2c1` [Compound 15a, N1-hydroxy-N6-(2-((7-methoxy-4-((1-methylpiperidin-4-yl)amino)quinazolin-2-yl)amino)ethyl)adipamide]?
A: IC50 [2]: > 100 µM; IC50 [3, 7]: > 100 µM; IC50 [1]: 47 ± 3.33 µM; IC50 [4, 8]: > 100 µM

Q: What does the source list for `COc1ccc2c(NCCNC(=O)CCCCCC(=O)NO)nc(N3CCCN(C)CC3)nc2c1` [Compound 22, N1-hydroxy-N7-(2-((7-methoxy-2-(4-methyl-1,4-diazepan-1-yl)quinazolin-4-yl)amino)ethyl)heptanediamide]?
A: IC50 [2]: > 100 µM; IC50 [3, 7]: > 100 µM; IC50 [1]: 60.6 ± 3.66 µM; IC50 [4, 8]: > 100 µM

Q: Which results are given for `COc1ccc2c(NC3CCN(Cc4ccccc4)CC3)nc(NCCNC(=O)CCCCCCC(=O)NO)nc2c1` [Compound 13, N1-(2-((4-((1-benzylpiperidin-4-yl)amino)-7-methoxyquinazolin-2-yl)amino)ethyl)-N8-hydroxyoctanediamide]?
A: EC50 [5]: 57 ± 1.12 µM; EC50 [6, 9]: > 100 µM; IC50 [2]: > 100 µM; IC50 [3, 10]: 15.3 ± 0.79 µM; IC50 [1]: 37.8 ± 2.8 µM; IC50 [4, 11]: 27.8 ± 0.59 µM

Q: Which IC50 [1] does the source give for `COc1cc2nc(NCCNC(=O)CCCCCC(=O)NO)nc(NC3CCN(C(C)C)CC3)c2cc1OC` [Compound 5a, N1-hydroxy-N7-(2-((4-((1-isopropylpiperidin-4-yl)amino)-6,7-dimethoxyquinazolin-2-yl)amino)ethyl)heptanediamide] here?
A: 66.6 ± 3.98 µM

Q: For `COc1cc2nc(N3CCCN(C)CC3)nc(NC3CCN(C(=O)CCCCCC(=O)NO)CC3)c2cc1OC` [Compound 20, 7-(4-((6,7-dimethoxy-2-(4-methyl-1,4-diazepan-1-yl)quinazolin-4-yl)amino)piperidin-1-yl)-N-hydroxy-7-oxoheptanamide], which IC50 [2] is on record?
A: > 100 µM

Q: What about the IC50 [3, 7] of the same molecule?
A: > 100 µM

Q: What about the IC50 [1] of the same molecule?
A: 97.5 ± 2.78 µM

Q: What about the IC50 [4, 8] of the same molecule?
A: > 100 µM

Q: `COc1ccc2c(NC3CCN(Cc4ccccc4)CC3)nc(NCCNC(=O)CCCCCC(=O)NO)nc2c1` [Compound 14, N1-(2-((4-((1-benzylpiperidin-4-yl)amino)-7-methoxyquinazolin-2-yl)amino)ethyl)-N7-hydroxyheptanediamide] was tested. Which EC50 [5] did it give?
A: 19.95 ± 0.19 µM

Q: And the EC50 [6, 9]?
A: 36.2 ± 1.76 µM

Q: And the IC50 [2]?
A: > 100 µM

Q: And the IC50 [3, 10]?
A: 13.8 ± 1.22 µM

Q: What about the IC50 [1] of the same molecule?
A: 7.14 ± 1.62 µM

Q: And the IC50 [4, 11]?
A: 5.74 ± 1.23 µM

Q: With `COc1cc2nc(NCCNC(=O)CCCCCC(=O)NO)nc(NC3CCN(Cc4ccccc4)CC3)c2cc1OC` [Compound 5b, N1-(2-((4-((1-benzylpiperidin-4-yl)amino)-6,7-dimethoxyquinazolin-2-yl)amino)ethyl)-N7-hydroxyheptanediamide] as the molecule, how does the “HDAC inhibition (in words)” value ([3]; candidates tested in both Hela and K562 cell lines, compared with Compound 14) read?
A: did not show decent inhibition of HDAC

Q: What about the IC50 [1] of the same molecule?
A: 87.4 ± 5.44 µM

Q: What does the source list for `COc1cc2nc(N3CCCN(C)CC3)nc(NC3CCN(C(=O)CCCCCCC(=O)NO)CC3)c2cc1OC` [Compound 19, 8-(4-((6,7-dimethoxy-2-(4-methyl-1,4-diazepan-1-yl)quinazolin-4-yl)amino)piperidin-1-yl)-N-hydroxy-8-oxooctanamide]?
A: IC50 [2]: > 100 µM; IC50 [3, 7]: > 100 µM; IC50 [1]: 99.6 ± 3.13 µM; IC50 [4, 8]: > 100 µM

Q: How did the IC50 [2] turn out when `COc1ccc2c(NC3CCN(C)CC3)nc(NCCNC(=O)CCCC(=O)NO)nc2c1` [Compound 16a, N1-hydroxy-N5-(2-((7-methoxy-4-((1-methylpiperidin-4-yl)amino)quinazolin-2-yl)amino)ethyl)glutaramide] was run?
A: > 100 µM

Q: And the IC50 [3, 7]?
A: > 100 µM

Q: What about the IC50 [1] of the same molecule?
A: 45.7 ± 1.76 µM

Q: What about the IC50 [4, 8] of the same molecule?
A: > 100 µM

Q: Which IC50 [1] does the source give for `COc1cc2nc(NCCNC(=O)CCCCCCC(=O)NO)nc(NC3CCN(C(C)C)CC3)c2cc1OC` [Compound 4a, N1-hydroxy-N8-(2-((4-((1-isopropylpiperidin-4-yl)amino)-6,7-dimethoxyquinazolin-2-yl)amino)ethyl)octanediamide] here?
A: 74.2 ± 1.94 µM

Q: `COc1cc2nc(NCCNC(=O)CCCCCCC(=O)NO)nc(NC3CCN(C)CC3)c2cc1OC` [Compound 4, N1-(2-((6,7-dimethoxy-4-((1-methylpiperidin-4-yl)amino)quinazolin-2-yl)amino)ethyl)-N8-hydroxyoctanediamide] was tested. Which IC50 [1] did it give?
A: 96.7 ± 1.68 µM

Q: What does the source list for `COc1ccc2c(NC3CCN(Cc4ccccc4)CC3)nc(NCCNC(=O)CCCC(=O)NO)nc2c1` [Compound 16, N1-(2-((4-((1-benzylpiperidin-4-yl)amino)-7-methoxyquinazolin-2-yl)amino)ethyl)-N5-hydroxyglutaramide]?
A: EC50 ([6]; Supplementary Table 4, 72 h, NA = not active up to highest concentration tested (100 μM)): > 100 µM; IC50 [2]: > 100 µM; IC50 [3, 7]: > 100 µM; IC50 [1]: 90.3 ± 3.75 µM; IC50 [4, 8]: > 100 µM

Q: How did the IC50 [2] turn out when `COc1ccc2c(NC3CCN(Cc4ccccc4)CC3)nc(NCCNC(=O)CCCCC(=O)NO)nc2c1` [Compound 15, N1-(2-((4-((1-benzylpiperidin-4-yl)amino)-7-methoxyquinazolin-2-yl)amino)ethyl)-N6-hydroxyadipamide] was run?
A: > 100 µM

Q: What about the IC50 [3, 7] of the same molecule?
A: > 100 µM

Q: And the IC50 [1]?
A: 72.1 ± 1.37 µM

Q: And the IC50 [4, 8]?
A: > 100 µM

Q: With `COc1cc2nc(NCCNC(=O)CCCC(=O)NO)nc(NC3CCN(C)CC3)c2cc1OC` [Compound 7, N1-(2-((6,7-dimethoxy-4-((1-methylpiperidin-4-yl)amino)quinazolin-2-yl)amino)ethyl)-N5-hydroxyglutaramide] as the molecule, how does the IC50 [1] read?
A: 76.7 ± 0.89 µM
